Tested on: autochthonous seawater bacteria
Assay: Bacterial growth potential of antiscalants in natural seawater with an autochthonous bacterial population (flow cytometry)
Assay type: cell-based
Conditions: 50 mg L^−1 antiscalant, Red Sea water, 30° C. dark, 8 days, one-tail Wilcoxon signed-rank test
Procedure: The natural seawater was serially filtered to remove microbial cells and to set a desired low initial cell concentration for the growth potential assay within approximately 10,000 to 20,000 bacterial cells mL^−1. This seawater was used in the method of the present disclosure.
Natural seawater (1.0 L) was serially filtered through pre-cleaned 0.45 μm pore size and 0.2 μm pore size polyethersulfone filters (Satorius Stedium Minisart). The filters were replaced every 100 mL.
30 mL of the resulting filtered seawater with a bacterial cell concentration of 21,000±1200 cells mL^−1 was added to AOC-free 40 mL borosilicate glass vials with screw caps containing PTFE-lined silicone septa.
Antiscalants from the 8 stock solutions (3 g L^−1) were added to 8 vials to obtain 8 mixtures comprising the antiscalant at a final concentration of 50 mg L^−1.
Vials with no antiscalant addition were included as a control.
The vials were incubated at 30° C. in the dark and bacterial growth was determined by measuring cell concentrations over time using flow cytometry. Each growth potential test was conducted in three independent biological replicates.
Flow cytometry (FCM) was used to measure the bacterial cell concentration in the vials at an interval of 24 h.
To this end, 5.0 μL SYBR Green I (Invitrogen, 100× diluted in 10 mM Tris buffer pH=8.1) were added to a final 0.5 mL vial samples in amber microfuge tubes followed by mixing and incubation for 10 min in the dark at 35° C.
Stained cells were measured with a BD Accuri C6 instrument in fixed 50 μL volume mode with a sample flow rate of 35 μL min^−1. The blue 488 nm laser (50 mW) was used to collect the green fluorescence at FL1=533 30 nm, the red fluorescence FL3>670 nm, as well as intrinsic cell parameters were given by the side scattered (SSH) and forward scattered (FSH) light signals. Electronic gating was used to separate positive microbial stained signals from instrument, and water background noise as described by Prest et al. (2013).
The instrument performance was verified using Spherotech 8-peak validation beads. […]

SMILES	bacterial growth compared to reference without antiscalant
O=P(O)(O)CN(CP(=O)(O)O)CP(=O)(O)O [ATMP, amino trimethylene phosphonic acid]	promoted bacterial growth
O=P(O)(O)CN(CCCCCCN(CP(=O)(O)O)CP(=O)(O)O)CP(=O)(O)O [HDTMP, hexamethylenediamine-tetra(methylenephosphonic acid)]	promoted bacterial growth
CC(O)(P(=O)(O)O)P(=O)(O)O [HEDP, 1-hydroxyethylidene-(1,1-diphosphonic acid)]	did not promote bacterial growth

— US20250270615A1, “METHOD FOR DETECTING THE MICROBIAL GROWTH POTENTIAL OF AN ANTISCALANT COMPOSITION IN NATURAL SEAWATER” (ACWA POWER Company, priority 2024, published 2025)
